Source: patent publication US20100173900A1, “Strobilurins for Increasing the Resistance of Plants to Abiotic Stress” (BASF SE, priority 2008, published 2010)

How the values were obtained:
[1] = tested on: corn plants; test: Corn behavior under freeze conditions (dead plants); format: in vivo; conditions: seed treatment 5 g a.s./100 kg seed, 3 h at −5 ° C. ten or eleven days after sowing, counted one day after freeze exposure
Protocol: Exposure times and temperatures were selected to show sufficient damage to the plants so that treatment differences could be observed.
Corn seeds were treated with pyraclostrobin (5 g of active substance per 100 kg seed) or with azoxystrobin (5 g of active substance per 100 kg seed). The treatment was effected by means of a HEGE 11 seed treatment apparatus. One day after the treatment, the seeds were sown into pots with sandy loam soil. One part of the corn plants was exposed for 3 h to −5 ° C. ten days after sowing, and the other plants eleven days after sowing. In each case, the number of dead plants was counted one day after the freeze exposure. The results are compiled as mean percentage values (relative to 100% of living plants before exposure to freezing temperatures) in table 3 below.

[2] = tested on: cotton plants; test: Cotton behavior under freeze conditions (dead plants); format: in vivo; conditions: 4 h at −5° C. in BBCH growth stage 10, counted three days after freeze exposure
Protocol: Cotton seeds were treated either with pyraclostrobin (20 g of active substance per 100 kg seed) or with azoxystrobin (19 g of active substance per 100 kg seed). The treatment was effected by means of a HEGE 11 seed treatment apparatus. After the treatment, the seeds were sown into pots. When the cotton plants were in the BBCH growth stage 10, they were exposed for 4 h to −5° C. Three days after the freeze exposure, the number of dead plants was counted. The results are compiled as mean percentage values (relative to 100% of living plants before exposure to freezing temperatures) in table 8 below.

[3] = tested on: corn plants; test: Emergence behavior of corn after seed treatment, cold and variable temperatures; format: in vivo; conditions: seed treatment 5 g a.s./100 kg seed, 7 days at 10° C., 4 days at 24° C., then 10° C.
Protocol: (§1) The emergence behavior of corn plants the seeds of which had been treated with pyraclostrobin and which were exposed after sowing to cold and variable temperatures was studied following the guidelines for germination testing according to the Association of Official Seed Analysts (AOSA, 2005). For this purpose, corn seeds were treated with pyraclostrobin (5 g active substance per 100 kg seed). The treatment was effected by means of a HEGE 11 seed treatment apparatus. After the treatment, the seeds were sown into sand trays (2×100 seeds per tray). The sand trays were placed in an incubator and submitted to following temperature regimen: 7 days at 10° C.-4 days at 24° C.-then 10 ° C. 9, 10 and 29 days after sowing (=DAP=days after planting), the number of seeds which had given rise to plants was counted. The results are compiled as mean values in table 1. A value of 100% means that all sown seeds have given rise to plants.

[4] = tested on: sugar beet plants; test: Sugar beet behavior under freeze conditions (dead plants); format: in vivo; conditions: seed treatment 30 g a.s./100 kg seed
Protocol: Sugar beet seeds were treated with pyraclostrobin (30 g of active substance per 100 kg seed). The treatment was effected by means of a HEGE 11 seed treatment apparatus. After the treatment, the seeds were sown into pots with a sandy loam soil/sand mixture (2:1 v/v; 2 seeds per pot). One part of the sugar beet plants was exposed for 3 h to −5° C. when they were in the BBCH growth stage 10, and the other plants when they were in the BBCH growth stage 11. In each case, the number of dead plants was counted three days after the freeze exposure. The results are compiled as mean percentage values (relative to 100% of living plants before exposure to freezing temperatures) in table 5 below.

[5] = tested on: corn plants; test: Plant height (stem length) and root length of corn, cold and variable temperatures; format: in vivo; conditions: seed treatment 5 g a.s./100 kg seed, cold/variable temperature regimen of example 1, 23 days after sowing
Protocol: as §1
23 days after sowing (see example 1) the stem length (=length from the soil line to the meristem) and the root length of the plants was measured. The results are compiled as mean values in table 2 below.

[6] = tested on: corn plants; test: Corn field trial, Burrus Seed Farms; format: in vivo; conditions: 5 g a.s./100 kg seed in addition to Maxim XL and Apron XL, 35 DAP
Protocol: For avoiding fungal stress which could give misleading test results especially under cold temperature, all corn seeds were treated with Maxim XL (fludioxonil; 3.5 g of active substance per 100 kg seed) and Apron XL (mefenoxam; 1 g of active substance per 100 kg seed). A part of the seeds was additionally treated with pyraclostrobin (5 g of active substance per 100 kg seed). The treatment was effected by means of a HEGE 11 seed treatment apparatus. On Sep. 26, 2007, the seeds were sown in Burrus Seed Farms, Illinois, USA. 35 days after sowing (=DAP; days after planting), the number of intact, injured and dead plants was assessed. The results are compiled as mean percentage values (relative to total number of plants=100%) in table 10 below.

[7] = tested on: sugar beet plants; test: Emergence behavior of sugar beet at cold temperature; format: in vivo; conditions: seed treatment 30 g a.s./100 kg seed, kept at 10° C.
Protocol: The emergence behavior of sugar beet plants the seeds of which had been treated with pyraclostrobin and which were exposed after sowing to cold temperatures was studied following the guidelines for germination testing according to the Association of Official Seed Analysts (AOSA, 2005). For this purpose, sugar beet seeds were treated with pyraclostrobin (30 g active substance per 100 kg seed). The treatment was effected by means of a HEGE 11 seed treatment apparatus. After the treatment, the seeds were sown into pots with a sandy loam soil/sand mixture (2:1 v/v; 2 seeds per pot). The pots were placed in an incubator and kept at 10° C. 13, 15, 16, 17 and 20 days after sowing (=DAP=days after planting), the number of seeds which had given rise to plants was counted. The results are compiled as mean values in table 4. A value of 100% means that all sown seeds have given rise to plants.

[8] = tested on: spring wheat plants; test: Spring wheat behavior under freeze conditions (dead plants); format: in vivo; conditions: seed treatment 5 g a.s./100 kg seed, 2 h at −10° C. in BBCH growth stage 11, counted three days after freeze exposure
Protocol: (§2) Spring wheat seeds were treated with pyraclostrobin (5 g of active substance per 100 kg seed). The treatment was effected by means of a HEGE 11 seed treatment apparatus. After the treatment, the seeds were sown into pots. When the spring wheat plants were in the BBCH growth stage 11, they were exposed for 2 h to −10° C. Three days after the freeze exposure, the number of dead plants was counted. The results are compiled as mean percentage values (relative to 100% of living plants before exposure to freezing temperatures) in table 7 below.

[9] = tested on: corn plants; test: Corn field trial under frost conditions, Beaver Crossing; format: in vivo; conditions: 5 g a.s./100 kg seed in addition to Maxim XL and Apron XL
Protocol: For avoiding fungal stress which could give misleading test results especially under cold temperature, all corn seeds were treated with Maxim XL (fludioxonil; 3.5 g of active substance per 100 kg seed) and Apron XL (mefenoxam; 1 g of active substance per 100 kg seed). A part of the seeds was additionally treated with pyraclostrobin (5 g of active substance per 100 kg seed). The treatment was effected by means of a HEGE 11 seed treatment apparatus. The seeds were sown every 5 days starting from Sep. 6, 2007 in 1.75″ deep on clean tilled soil in Beaver Crossing, NE, USA. Frost occurred on Oct. 22/23, 2007 (−0.1° C. for 1 h), Oct. 23/24 (−0.1° C. for 1 h), 2007 and Oct. 24/25, 2007 (0° C. for 1 h, −1.1° C. for 1.5 h and 0° C. for 1 h). 47 days after sowing (=DAP; days after planting), the number emerged plants and their height was assessed. 50 DAP, the extent of dead tissue was assessed. The results are compiled as mean values in table 11 below.

[10] = tested on: soybean plants; test: Soybean behavior under freeze conditions (dead plants); format: in vivo; conditions: seed treatment 5 g a.s./100 kg seed, 3.5 h at −7° C. in BBCH growth stage 9, counted three days after freeze exposure
Protocol: as §2, with “Soybean” for “Spring wheat”, “soybean” for “spring wheat”, “9,” for “11,”, “3.5” for “2”, “−7°” for “−10°”, “6” for “7”

[11] = tested on: canola plants; test: Canola behavior under freeze conditions (dead plants); format: in vivo, canola (oilseed rape); conditions: seed treatment 10 g a.s./100 kg seed, 1 h at −10° C. in BBCH growth stage 10, counted three days after freeze exposure
Protocol: Canola (oilseed rape) seeds were treated either with pyraclostrobin (10 g of active substance per 100 kg seed) or with trifloxystrobin (10 g of active substance per 100 kg seed). The treatment was effected by means of a HEGE 11 seed treatment apparatus. After the treatment, the seeds were sown into pots. When the canola plants were in the BBCH growth stage 10, they were exposed for 1 h to −10° C. Three days after the freeze exposure, the number of dead plants was counted. The results are compiled as mean percentage values (relative to 100% of living plants before exposure to freezing temperatures) in table 9 below.

CO/C=C(/C(=O)OC)c1ccccc1Oc1cc(Oc2ccccc2C#N)ncn1 [azoxystrobin]
Dead plants [1]: 31%
Dead plants ([2]; seed treatment 19 g a.s./100 kg seed): 24%

COC(=O)N(OC)c1ccccc1COc1ccn(-c2ccc(Cl)cc2)n1 [pyraclostrobin]
Emergence ([3]; 9 DAP): 81%
Emergence ([3]; 10 DAP): 97%
Emergence ([3]; 29 DAP): 100%
Dead plants [1]: 36%
Dead plants ([4]; 3 h at −5° C. in BBCH growth stage 10, counted three days after freeze exposure): 12%
Dead plants ([4]; 3 h at −5° C. in BBCH growth stage 11, counted three days after freeze exposure): 17%
Root length [5]: 13.3 cm
Stem length [5]: 11.2 cm
Dead plants [6]: 29%
Plants with injury [6]: 35%
Plants with no injury [6]: 34%
Emergence ([7]; 13 DAP): 23%
Emergence ([7]; 15 DAP): 45%
Emergence ([7]; 16 DAP): 57%
Emergence ([7]; 17 DAP): 73%
Emergence ([7]; 20 DAP): 90%
Dead plants [8]: 18%
No. of plants emerged ([9]; 47 DAP): 19
Plant height ([9]; 47 DAP): 1.25 inches
Dead tissue ([9]; 50 DAP): 63%
Dead plants ([2]; seed treatment 20 g a.s./100 kg seed): 17%
Dead plants [10]: 18%
Dead plants [11]: 40%

CON=C(C(=O)OC)c1ccccc1CON=C(C)c1cccc(C(F)(F)F)c1 [trifloxystrobin]
Dead plants [11]: 42%
